Measurements from PubChem BioAssay (NCI).
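Here, GI50 denotes the concentration required for 50% inhibition of growth. TGI marks complete inhibition of growth.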

Key:
Assay in all cases: DTP human tumour cell line panel, 384-well format
IGROV1 ovarian = tested on: IGROV1 ovarian
M14 melanoma = tested on: M14 melanoma
786-0 renal = tested on: 786-0 renal
CCRF-CEM leukemia = tested on: CCRF-CEM leukemia
SK-MEL-2 melanoma = tested on: SK-MEL-2 melanoma
K-562 leukemia = tested on: K-562 leukemia
CAKI-1 renal = tested on: CAKI-1 renal
NCI/ADR-RES ovarian = tested on: NCI/ADR-RES ovarian
NCI-H322M lung = tested on: NCI-H322M lung
U251 glioblastoma = tested on: U251 glioblastoma
TK-10 renal = tested on: TK-10 renal
SF-539 CNS = tested on: SF-539 CNS
RXF 393 renal = tested on: RXF 393 renal
SK-MEL-5 melanoma = tested on: SK-MEL-5 melanoma
HCT-15 colon = tested on: HCT-15 colon
A549 NSCLC = tested on: A549 NSCLC
SF-268 CNS = tested on: SF-268 CNS
BT-549 breast = tested on: BT-549 breast
HL-60(TB) leukemia = tested on: HL-60(TB) leukemia
HCC-2998 colon = tested on: HCC-2998 colon
COLO 205 colon = tested on: COLO 205 colon
PC-3 prostate = tested on: PC-3 prostate
NCI-H226 lung = tested on: NCI-H226 lung
SN12C renal = tested on: SN12C renal
SW-620 colon = tested on: SW-620 colon
NCI-H23 lung = tested on: NCI-H23 lung
ACHN renal = tested on: ACHN renal
HS 578T breast = tested on: HS 578T breast
MOLT-4 leukemia = tested on: MOLT-4 leukemia
MDA-MB-468 breast = tested on: MDA-MB-468 breast
KM12 colon = tested on: KM12 colon
NCI-H522 lung = tested on: NCI-H522 lung
UACC-257 melanoma = tested on: UACC-257 melanoma
OVCAR-8 ovarian = tested on: OVCAR-8 ovarian
LOX IMVI melanoma = tested on: LOX IMVI melanoma
SNB-75 CNS = tested on: SNB-75 CNS
T-47D breast = tested on: T-47D breast
OVCAR-3 ovarian = tested on: OVCAR-3 ovarian
HCT-116 colon = tested on: HCT-116 colon
SR leukemia = tested on: SR leukemia
UO-31 renal = tested on: UO-31 renal
OVCAR-4 ovarian = tested on: OVCAR-4 ovarian
MDA-MB-231 breast = tested on: MDA-MB-231 breast
HOP-62 NSCLC = tested on: HOP-62 NSCLC
SNB-19 CNS = tested on: SNB-19 CNS
DU-145 prostate = tested on: DU-145 prostate
MALME-3M melanoma = tested on: MALME-3M melanoma

## COC1(C(=O)N2Cc3nc(Cl)nc(N[C@H](C)c4cc(N)cc(C(F)(F)F)c4)c3C2)CCOCC1
IGROV1 ovarian
  GI50: 16.1 µM
  TGI: 33.6 µM
M14 melanoma
  GI50: 17.5 µM
  TGI: 32.3 µM
786-0 renal
  GI50: 16.5 µM
  TGI: 33.2 µM
CCRF-CEM leukemia
  GI50: 15.5 µM
  TGI: 29.1 µM
SK-MEL-2 melanoma
  GI50: 16.9 µM
  TGI: 31.1 µM
K-562 leukemia
  GI50: 0.152 µM
  TGI: 15 µM
CAKI-1 renal
  GI50: 6.99 µM
  TGI: 35.4 µM
NCI/ADR-RES ovarian
  GI50: 17.5 µM
  TGI: 51.8 µM
NCI-H322M lung
  GI50: 13.5 µM
  TGI: 43.2 µM
U251 glioblastoma
  GI50: 15.1 µM
  TGI: 29.7 µM
TK-10 renal
  GI50: 14.9 µM
  TGI: 35.3 µM
SF-539 CNS
  GI50: 15.3 µM
  TGI: 28.7 µM
RXF 393 renal
  GI50: 13.8 µM
  TGI: 27.4 µM
SK-MEL-5 melanoma
  GI50: 15 µM
  TGI: 28.4 µM
HCT-15 colon
  GI50: 18.6 µM
  TGI: 38.9 µM
A549 NSCLC
  GI50: 24.5 µM
  TGI: > 100 µM
SF-268 CNS
  GI50: 17.2 µM
  TGI: 34.8 µM
BT-549 breast
  GI50: 14.5 µM
  TGI: 28 µM
HL-60(TB) leukemia
  GI50: 16.2 µM
  TGI: 29.8 µM
HCC-2998 colon
  GI50: 15.4 µM
  TGI: 30.3 µM
COLO 205 colon
  GI50: 24 µM
  TGI: 56.9 µM
PC-3 prostate
  GI50: 16.3 µM
  TGI: 31.5 µM
NCI-H226 lung
  GI50: 13.4 µM
  TGI: 31 µM
SN12C renal
  GI50: 10.1 µM
  TGI: 25.3 µM
SW-620 colon
  GI50: 17.9 µM
  TGI: 40.2 µM
NCI-H23 lung
  GI50: 14.2 µM
  TGI: 38.6 µM
ACHN renal
  GI50: 20.4 µM
  TGI: 67 µM
HS 578T breast
  GI50: 12.6 µM
  TGI: 25.7 µM
MOLT-4 leukemia
  GI50: 8.48 µM
  TGI: 21 µM
MDA-MB-468 breast
  GI50: 8.68 µM
  TGI: 24.8 µM
KM12 colon
  GI50: 3.55 µM
  TGI: 22 µM
NCI-H522 lung
  GI50: 12.5 µM
  TGI: 34.4 µM
UACC-257 melanoma
  GI50: 18.3 µM
  TGI: 33.3 µM
OVCAR-8 ovarian
  GI50: 18.4 µM
  TGI: 46.1 µM
LOX IMVI melanoma
  GI50: 18.7 µM
  TGI: 32.8 µM
SNB-75 CNS
  GI50: 10.7 µM
  TGI: 23.5 µM
T-47D breast
  GI50: 12.4 µM
  TGI: 32.5 µM
OVCAR-3 ovarian
  GI50: 13.1 µM
  TGI: 26.2 µM
HCT-116 colon
  GI50: 16.3 µM
  TGI: 31.2 µM
SR leukemia
  GI50: 10.5 µM
  TGI: 22.4 µM
UO-31 renal
  GI50: 15.2 µM
  TGI: 29.2 µM
OVCAR-4 ovarian
  GI50: 15.6 µM
  TGI: 43.8 µM
MDA-MB-231 breast
  GI50: 22.4 µM
  TGI: 55.3 µM
HOP-62 NSCLC
  GI50: 15.6 µM
  TGI: 29.3 µM
SNB-19 CNS
  GI50: 19.3 µM
  TGI: > 100 µM
DU-145 prostate
  GI50: 19.9 µM
  TGI: 50.9 µM
MALME-3M melanoma
  GI50: 16.2 µM
  TGI: 34.3 µM
